Values joined by “and” are separate entries in the source; they are usually repeats but may differ in a detail not shown here. Equal values may be shown once. Inconclusive results and toxic doses are left out. Rule as the data show it: active = T/C of 150% or more; inactive = T/C below 125%.
Tested on: L1210 leukemia ip in BDF1 mice, survival T/C
Assay: NCI In Vivo Anticancer Drug Screen. Data for tumor model L1210 Leukemia (intraperitoneal) in B6D2F1 (BDF1) mice
Conditions: endpoint: mean survival time, higher = longer survival
Summary of the method: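 In this screen, tumor-bearing mice given compound are compared to those given vehicle, and their survival values are reported as a treated-to-control quotient.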

[1] = dose: 200.0 mg/kg/injection, schedule: Q01DX009 (ip), vehicle: saline with Tween-80
[2] = dose: 100.0 mg/kg/injection, schedule: Q04DX003 (ip), vehicle: saline with Tween-80
[3] = dose: 200.0 mg/kg/injection, schedule: Q04DX003 (ip), vehicle: saline with Tween-80
[4] = dose: 400.0 mg/kg/injection, schedule: Q04DX003 (ip), vehicle: saline with Tween-80
[5] = dose: 100.0 mg/kg/injection, schedule: Q04DX002 (ip), vehicle: saline with Tween-80
[6] = dose: 200.0 mg/kg/injection, schedule: Q04DX002 (ip), vehicle: saline with Tween-80
[7] = dose: 400.0 mg/kg/injection, schedule: Q04DX002 (ip), vehicle: saline with Tween-80

Measured: T/C

O=[N+]([O-])/C=C/c1ccc([N+](=O)[O-])o1
inactive: dose: 3.0 mg/kg/injection, schedule: Q01DX001 (ip), vehicle: Klucel (hydroxypropylcellulose) (HPC) 106 % of control | dose: 6.0 mg/kg/injection, schedule: Q01DX001 (ip), vehicle: Klucel (hydroxypropylcellulose) (HPC) 98 % of control | dose: 12.0 mg/kg/injection, schedule: Q01DX001 (ip), vehicle: Klucel (hydroxypropylcellulose) (HPC) 92 % of control | dose: 12.5 mg/kg/injection, schedule: Q01DX001 (ip), vehicle: Klucel (hydroxypropylcellulose) (HPC) 107 % of control

O=C(C1=CCCC1)C1=CCCC1
inactive: dose: 50.0 mg/kg/injection, schedule: Q01DX001 (ip), vehicle: saline with Tween-80 99 % of control | dose: 100.0 mg/kg/injection, schedule: Q01DX001 (ip), vehicle: saline with Tween-80 105 % of control | dose: 200.0 mg/kg/injection, schedule: Q01DX001 (ip), vehicle: saline with Tween-80 99 % of control

CCOP(=O)(Cc1ccc(Cl)cc1)OCC
inactive: dose: 100.0 mg/kg/injection, schedule: Q01DX009 (ip), vehicle: carboxymethylcellulose (CMC) 102 % of control and 90 % of control | dose: 100.0 mg/kg/injection, schedule: Q04DX002 (ip), vehicle: carboxymethylcellulose (CMC) 98 % of control and 107 % of control | dose: 100.0 mg/kg/injection, schedule: Q04DX003 (ip), vehicle: carboxymethylcellulose (CMC) 96 % of control | dose: 200.0 mg/kg/injection, schedule: Q01DX009 (ip), vehicle: carboxymethylcellulose (CMC) 104 % of control and 107 % of control | dose: 200.0 mg/kg/injection, schedule: Q04DX002 (ip), vehicle: carboxymethylcellulose (CMC) 93 % of control and 101 % of control | dose: 200.0 mg/kg/injection, schedule: Q04DX003 (ip), vehicle: carboxymethylcellulose (CMC) 100 % of control | dose: 400.0 mg/kg/injection, schedule: Q04DX002 (ip), vehicle: carboxymethylcellulose (CMC) 93 % of control and 95 % of control

CC(=O)[O][Hg][CH2]C1(C)COC(C)([CH2][Hg][O]C(C)=O)CO1 (centres undefined)
inactive: dose: 10.0 mg/kg/injection, schedule: Q01DX001 (ip), vehicle: carboxymethylcellulose (CMC) 108 % of control | dose: 20.0 mg/kg/injection, schedule: Q01DX001 (ip), vehicle: carboxymethylcellulose (CMC) 97 % of control | dose: 80.0 mg/kg/injection, schedule: Q01DX001 (ip), vehicle: carboxymethylcellulose (CMC) 97 % of control

CCCOC(C)CC(c1ccccc1)(c1ccccc1)c1ccccc1 (centres undefined)
inactive: dose: 12.5 mg/kg/injection, schedule: Q01DX009 (ip), vehicle: saline with Tween-80 98 % of control | dose: 25.0 mg/kg/injection, schedule: Q01DX009 (ip), vehicle: saline with Tween-80 95 % of control | dose: 50.0 mg/kg/injection, schedule: Q01DX009 (ip), vehicle: saline with Tween-80 91 % of control | [1] 90 % of control

CCCNC(=O)Nc1ccc(C)cc1C
inactive: dose: 100.0 mg/kg/injection, schedule: Q01DX009 (ip), vehicle: saline with Tween-80 96 % of control | [2] 97 % of control | [1] 97 % of control | [3] 97 % of control | dose: 400.0 mg/kg/injection, schedule: Q01DX009 (ip), vehicle: saline with Tween-80 100 % of control | [4] 101 % of control

ClCc1noc(-c2ccccc2)n1
inactive: [5] 98 % of control | [6] 95 % of control | [7] 101 % of control

O=C(O)c1cc([N+](=O)[O-])ccc1Cl
inactive: dose: 100.0 mg/kg/injection, schedule: Q04DX002 (ip), vehicle: Klucel (hydroxypropylcellulose) (HPC) 117 % of control | dose: 200.0 mg/kg/injection, schedule: Q04DX002 (ip), vehicle: Klucel (hydroxypropylcellulose) (HPC) 103 % of control | dose: 400.0 mg/kg/injection, schedule: Q04DX002 (ip), vehicle: Klucel (hydroxypropylcellulose) (HPC) 98 % of control

CCNC(=O)Nc1ncn[nH]1
inactive: dose: 75.0 mg/kg/injection, schedule: Q01DX001 (ip), vehicle: carboxymethylcellulose (CMC) 102 % of control | dose: 150.0 mg/kg/injection, schedule: Q01DX001 (ip), vehicle: carboxymethylcellulose (CMC) 98 % of control

c1ccc(C2OCCCO2)cc1
inactive: dose: 12.5 mg/kg/injection, schedule: Q01DX009 (ip), vehicle: Klucel (hydroxypropylcellulose) (HPC) 92 % of control | dose: 25.0 mg/kg/injection, schedule: Q01DX009 (ip), vehicle: Klucel (hydroxypropylcellulose) (HPC) 100 % of control | dose: 400.0 mg/kg/injection, schedule: Q01DX009 (ip), vehicle: Klucel (hydroxypropylcellulose) (HPC) 87 % of control

O=C(Nc1ccccc1[N+](=O)[O-])OCc1ccc([N+](=O)[O-])cc1
inactive: [2] 92 % of control | [3] 105 % of control | [4] 105 % of control

COc1ccc(OC)c(-n2cccc2)c1
inactive: [5] 87 % of control | [6] 103 % of control | [7] 94 % of control

From PubChem BioAssay AID248 (DTP/NCI, 2004)
